Source: patent publication US8440849B2, “Use of nitroaniline derivatives for the production of nitric oxide” (STMicroelectronics S.r.l., priority 2006, dated 2013)

Experiment: NO photo-release, fluorimetric DAN (2,3-diaminonaphthalene) assay measuring nitrite levels
Settings: for NO release after irradiation (presence of nitrites, fluorescent spectrum): 350 nm, 8 lamps
Excerpt: It allows the indirect determination of NO by measuring nitrite levels. In particular, NO is an highly reactive gas that, in the presence of water, forms an equimolar mixture of nitrites and nitrates. Nitrites, reacting with a DAN (2,3-diaminonaphtalene) solution in the presence of an acid, form 1-naphthotriazole, a highly fluorescent compound having a characteristic UV absorbance.
Therefore, the solution of 4-nitro-3-(trifluoromethyl)aniline in methanol after irradiation was dried and then the recovered 4-nitro-3-(trifluoromethyl)aniline was re-dissolved with water and phosphate buffer 0.1 M (pH 7.4). 150 μl of a DAN solution were added to the solution of 4-nitro-3-(trifluoromethyl)aniline heating at 50° C. for 40 minutes. Subsequently, 150 μl of concentrated NaOH was added in order to obtain naphthotriazole ions according to the scheme below.
300 μl of a DAN saturated solution in HCl 0.6 M were added to 3 ml of the irradiated solution of 10-(3-(trifluoromethyl)-4-Nitrophenylamino)decan-1-thiol followed by heating at 50° C. for 20 minutes.
Subsequently, 1 ml of NaOH was added to 1 ml of the solution in order to obtain naphthotriazole ions.
The NO photo-release of the nanoparticles functionalized with 1043-(trifluoromethyl)-4-Nitrophenylamino)decan-1-thiol was measured using fluorimetric assay based on 2,3-diaminonaphthalene (DAN) [T. P. Misko, R. J. Schilling, D. Salvemini, W. M. Moore, M. G. Currie, Anal. […]], as shown in Examples 1 and 2 (FIG. 8).

Nc1ccc([N+](=O)[O-])c(C(F)(F)F)c1 [4-nitro-3-(trifluoromethyl)aniline]
NO release after irradiation (presence of nitrites, fluorescent spectrum) (methanol solution, 2 hours, DAN, phosphate buffer pH 7.4, FIG. 4): formation of NO

O=[N+]([O-])c1ccc(NCCCCCCCCCCS)cc1C(F)(F)F [10-(3-(trifluoromethyl)-4-Nitrophenylamino)decan-1-thiol]
NO release after irradiation (presence of nitrites, fluorescent spectrum) (CH3OH:H2O (10%) solution, 35 minutes, DAN in HCl 0.6 M, FIG. 6): formation of NO
NO photo-release profile (trend of the curve) (fluorimetric DAN assay, FIG. 8): linear behavior
